ChEMBL document CHEMBL1148190, “Xestokerols A, B, and C, New C 29 Steroids with a Cyclopropane Ring from the Okinawan Marine Sponge Xestospongia sp” (J Nat Prod, 1993)
≈ marks a conversion by molar mass, not a printed value. Calls of active or inactive are those of the source. No cut-off for these calls is given here.

Columns and labels:
KB = assay: Cytotoxicity against human KB cells; assay type: functional, cell-based
Staphylococcus aureus [1] = assay: Antibacterial activity against Staphylococcus aureus at 260 ug/ml; assay type: functional, organism-based
Bacillus subtilis [2] = assay: Antibacterial activity against Bacillus subtilis at 260 ug/ml; assay type: functional, organism-based
Micrococcus luteus [3] = assay: Antibacterial activity against Sarcina lutea at 260 ug/ml; assay type: functional, organism-based
L1210 = assay: Cytotoxicity against mouse L1210 cells; assay type: functional, cell-based
Micrococcus luteus [4] = assay: Antibacterial activity against Sarcina lutea; assay type: functional
Bacillus subtilis [5] = assay: Antibacterial activity against Bacillus subtilis; assay type: functional
Staphylococcus aureus [6] = assay: Antibacterial activity against Staphylococcus aureus; assay type: functional

Structure (SMILES) | IC50 (KB) [µg/mL] | Activity (Staphylococcus aureus [1]) | Activity (Bacillus subtilis [2]) | Activity (Micrococcus luteus [3]) | IC50 (L1210) [µg/mL] | MIC (Micrococcus luteus [4]) [µg/mL] | MIC (Bacillus subtilis [5]) [µg/mL] | MIC (Staphylococcus aureus [6]) [µg/mL]
CC(CCC(C)(O)[C@H]1CC[C@H]2[C@@H]3[C@H](O)C[C@H]4CC(=O)CC[C@]4(C)[C@H]3C[C@@H](O)[C@]12C)C1CC1C (stereo partly drawn) [XESTOKEROL B] | 4.6 (≈ 9.98 µM) | inactive | inactive | inactive | 2.2 (≈ 4.78 µM) |  |  | 
C=C(C(=O)CC(C)C1CC1C)[C@H]1CC[C@H]2[C@@H]3CC[C@H]4CC(=O)CC[C@]4(C)[C@H]3C[C@@H](O)[C@]12C (stereo partly drawn) [XESTOKEROL C] | > 10 |  |  |  | 0.78 (≈ 1.77 µM) | 66 (≈ 150 µM) |  | 
CC1CC1C(C)CC(O)C(O)(CO)[C@H]1CC[C@H]2[C@@H]3CC[C@H]4CC(=O)CC[C@]4(C)[C@H]3C[C@@H](O)[C@]12C (stereo partly drawn) [XESTOKEROL A] | 4.4 (≈ 9.23 µM) |  |  |  | 2.1 (≈ 4.41 µM) | 16 (≈ 33.6 µM) | 16 (≈ 33.6 µM) | 16 (≈ 33.6 µM)
